Assay results reported in patent publication US4900673A, “Mutant human angiogenin (angiogenesis factor with superior angiogenin activity) genes therefor and methods of expression” (President and Fellows of Harvard College, priority 1988, dated 1990).

Columns and labels:
[1] = target: T1, bovine RNase A (Bos taurus, UniProt P61823); details: measured under conditions employed here (Harper et al., Biochemistry 27: 219-226); cited from earlier work
T1 sequence (P61823 27-150): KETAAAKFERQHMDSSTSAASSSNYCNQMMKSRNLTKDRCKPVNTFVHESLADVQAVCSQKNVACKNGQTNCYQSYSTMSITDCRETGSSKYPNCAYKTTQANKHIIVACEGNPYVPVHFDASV

[2] = target: T2, human angiogenin variant D116N-angiogenin (Asn-116) (Homo sapiens, UniProt P03950, D140N); test: Cleavage of dinucleoside phosphates (HPLC method); type: biochemical; details: 30 mM Mes, pH 6.0, 30 mM NaCl, 0.1 mM dinucleoside phosphate, 37° C.
T2 construct: made in house; host or cells: E. coli W3110
T2 sequence (P03950 25-147 D140N): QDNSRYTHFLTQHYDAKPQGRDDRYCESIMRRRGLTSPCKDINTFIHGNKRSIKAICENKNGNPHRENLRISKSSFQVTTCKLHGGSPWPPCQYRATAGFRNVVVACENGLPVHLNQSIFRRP
Procedure: Activity toward the RNase substrates cytidyl (3'→5') adenosine (CpA) and uridyl (3'→5') adenosine (UpA) was determined using a sensitive HPLC method described previously (Shapiro et al., Biochemistry 25: 3527-3532 and 7255-7264 1986). Reaction mixture containing 30 mM 2-(N-morpholino) ethane sulfonic acid (Mes), pH 6.0, 30 mM NaCl and 0.1 mM dinucleoside phosphate were incubated with angiogenin (0.7-3.0 μM) at 37° C. Aliquots (15-20 μl) were removed at various times and injected onto an HPLC column (radial Pak C18; Waters Associates) equilibrated with 10 mM potassium phosphate, pH 7.0. Elution of reactants and products was accomplished using a linear gradient of methanol in 100 mM potassium phosphate pH 7.0 at a flow rate of 0.8 ml/minutes. Elution was monitored at 254 nm and the integrated areas of reactants and products used to calculate kcat /Km using the expression kcat /Km =1n {[S] o /[S]t }/[E]t.

Row | kcat /Km [2] [M^-1 s^-l] | SMILES | kcat /Km [1] [M⁻¹ s⁻¹]
1 |  | Nc1ccn([C@@H]2O[C@H](CO)[C@@H](OP(=O)(O)OC[C@H]3O[C@@H](n4cnc5c(N)ncnc54)[C@H](O)[C@@H]3O)[C@H]2O)c(=O)n1 [CpA, cytidyl (3'→5') adenosine] | 6e+06
2 | 0.5 | Nc1ncnc2c1ncn2[C@@H]1O[C@H](COP(=O)(O)O[C@H]2[C@@H](O)[C@H](n3ccc(=O)[nH]c3=O)O[C@@H]2CO)[C@@H](O)[C@H]1O [UpA, uridyl (3'→5') adenosine] | 4e+06
